According to patent US8029832B2, “Obesity and metabolic syndrome treatment with tanshinone derivatives which increase metabolic activity” (priority 2003, dated 2011):

Legend:
[1] = tested on: AMPK; experiment: AMPK activity of double or triple combinations of tanshinone derivatives in muscle cells; assay type: cell-based; conditions: combinations of the four tanshinone derivatives
Description: Using muscle cells, this example was carried out to confirm synergistic effects of AMPK activity with respect to the combination ratio between derivatives, which contained tanshinone I, tanshinone IIA, cryptotanshinone and 15,16-dihydrotanshinone I, as main ingredients. That is, we have attempted to confirm inter-complementary functions between derivatives according to gene expression as shown in Example 5 and thereby synergistic effects by any combination of tanshinone derivatives through AMPK activity.
The respective ingredients of tanshinone I, tanshinone IIA, cryptotanshinone and 15,16-dihydrotanshinone I were doubly or triply combined to prepare different compositions. AMPK activity of the prepared compositions and the AMPK activity of respective ingredients included in those compositions were compared to confirm synergistic effects. In addition, we have attempted to confirm AMPK activity with respect to changes in the combination ratio by varying the ratio between ingredients in the compositions, and to obtain synergistic effects of activity by any combination of tanshinone derivatives.

[2] = tested on: hepatocytes; conditions: Planta Med. 2002, 68, 1077-1081; cited from earlier work
[3] = tested on: cardiac fibroblasts; conditions: Planta Med. 2002, 68, 1103-1107; cited from earlier work
[4] = tested on: cardiac myocytes; conditions: Planta Med. 2002, 68, 1103-1107; cited from earlier work
[5] = tested on: cardiac myocytes; conditions: Biochemical Pharmacology 64, 745-750 (2002); cited from earlier work
[6] = tested on: mitochondria; conditions: Biochemical Pharmacology 65, 51-57, 2003; cited from earlier work

tanshinone I
enhancement effect on AMPK activity by combinational use of two or more of these compounds [1]: significantly increased

Cc1coc2c1C(=O)C(=O)c1c-2ccc2c1CCCC2(C)C [tanshinone IIA]
enhancement effect on AMPK activity by combinational use of two or more of these compounds [1]: significantly increased

15,16-Dihydrotanshinone I
enhancement effect on AMPK activity by combinational use of two or more of these compounds [1]: significantly increased

Cc1cccc2c3c(ccc12)C(=O)C1=C(OCC1C)C3=O (stereo not drawn) [dihydroisotanshinone I]
effect against menadione-induced cytotoxicity in hepatocytes [2]: hepatoprotective effects

Cc1cccc2c3c(ccc12)C(O)=C(C(C)CO)C(=O)C3=O (stereo not drawn) [tanshinone VI]
synthesis of collagen by cardiac fibroblasts [3]: inhibits synthesis of collagen by cardiac fibroblasts
hypertrophy of cardiac myocytes [4]: attenuates hypertrophy of cardiac myocytes

C[C@H]1COC2=C1C(=O)C(=O)c1c2ccc2c1CCCC2(C)C [cryptotanshinone]
enhancement effect on AMPK activity by combinational use of two or more of these compounds [1]: significantly increased

Cc1c(S(=O)(=O)O)oc2c1C(=O)C(=O)c1c-2ccc2c1CCCC2(C)C [tanshinone IIA sulfonate]
hypertrophy of cardiac myocytes induced by angiotensin II [5]: attenuates hypertrophy of cardiac myocytes induced by angiotensin II
electron-transfer reaction in mitochondria [6]: facilitates an electron-transfer reaction in mitochondria
